The structures appear in SMILES notation. Starred links: 1 amine or outer side, 2 acyl side, 3 side chain; linkers in the order of their positions; H or OH if unused. Positions of bridges follow the written chain, without caps; N, C: chain ends. Residues, ends and D or L forms follow the SMILES beside them. Groups on a side chain read outwards from the residue. *: point of attachment. X1 = O=C(CCCCCCCCCCCCCCCc1nnn[nH]1)NS(=O)(=O)CCCC(=O)*; C20 diacid = O=C(O)CCCCCCCCCCCCCCCCCCC(=O)*; C18 diacid = O=C(O)CCCCCCCCCCCCCCCCC(=O)*; γGlu = O=C(O)[C@H](CCC(=O)[*:2])N[*:1]; AEEA = NCCOCCOCC(=O)O

The first experiment deals with T1, Amylin 3(a) receptor (human calcitonin receptor (CTa) with RAMP-3) (Homo sapiens, UniProt O60896+P30988).
T1 construct: expressed in transfected cells; host or cells: BHK570 (baby hamster kidney) cells, stably transfected, with CRE-luciferase reporter
T1 sequence (O60896 24-148): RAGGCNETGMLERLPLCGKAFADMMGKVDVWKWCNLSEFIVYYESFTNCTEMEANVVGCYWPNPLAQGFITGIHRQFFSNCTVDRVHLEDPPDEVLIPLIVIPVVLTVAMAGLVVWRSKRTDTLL
T1 sequence (P30988 25-474): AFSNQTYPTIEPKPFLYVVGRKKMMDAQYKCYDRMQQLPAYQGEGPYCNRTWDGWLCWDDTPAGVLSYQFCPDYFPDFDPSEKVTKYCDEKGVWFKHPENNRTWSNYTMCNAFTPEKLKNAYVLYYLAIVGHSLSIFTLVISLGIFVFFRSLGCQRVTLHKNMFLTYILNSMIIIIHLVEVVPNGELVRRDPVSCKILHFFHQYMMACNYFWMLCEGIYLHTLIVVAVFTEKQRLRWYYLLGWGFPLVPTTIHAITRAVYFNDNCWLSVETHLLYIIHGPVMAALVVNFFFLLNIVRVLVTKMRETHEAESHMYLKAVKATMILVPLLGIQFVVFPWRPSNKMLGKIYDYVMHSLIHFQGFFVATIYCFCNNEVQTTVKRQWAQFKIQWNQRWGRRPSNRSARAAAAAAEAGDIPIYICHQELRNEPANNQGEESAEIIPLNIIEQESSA
Briefly: Amylin luciferase assay (CRE-luciferase reporter in BHK Amylin 3(a)//CRE-luc cells). Type of experiment: cell-based.
Conditions: not given
Put shortly: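 BHK570 cells stably expressing human calcitonin receptor (CTa), RAMP-3 and a CRE-luciferase reporter, about 20.000 cells/well, were exposed to standard or sample for 4 h at 37° C in phenol-red-free DMEM with 10% FBS and 10 mM Hepes pH 7,4. Luminescence was read after 30 min with LucLite at room temperature.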
As for `CC(C)C[C@H](NC(=O)[C@H](CC(N)=O)NC(=O)[C@H](CCC(N)=O)NC(=O)[C@H](CO)NC(=O)[C@H](CO)NC(=O)[C@H](CCCNC(=N)N)NC(=O)[C@@H](NC(=O)[C@H](CC(C)C)NC(=O)[C@H](Cc1ccccc1)NC(=O)[C@H](CC(N)=O)NC(=O)[C@H](C)NC(=O)[C@H](CC(C)C)NC(=O)[C@H](CCCNC(=N)N)NC(=O)[C@H](CCC(N)=O)NC(=O)[C@@H](NC(=O)[C@H](C)NC(=O)[C@@H]1CSSC[C@H](NC(=O)[C@H](CCC(=O)O)NC(=O)[C@H](CCCNC(=N)N)NC(=O)[C@H](CCC(=O)O)NC(=O)[C@H](CCC(=O)O)NC(=O)CCCCCCCCCCCCCCCCCCC(=O)O)C(=O)N[C@@H](CCC(N)=O)C(=O)N[C@@H]([C@@H](C)O)C(=O)N[C@@H](C)C(=O)N[C@@H]([C@@H](C)O)C(=O)N1)[C@@H](C)O)C(C)C)C(=O)NCC(=O)N1CCC[C@H]1C(=O)N[C@H](C(=O)N[C@@H](CC(C)C)C(=O)N1CCC[C@H]1C(=O)N1CCC[C@H]1C(=O)N[C@H](C(=O)N[C@@H](CC(N)=O)C(=O)N[C@H](C(=O)NCC(=O)N[C@@H](CO)C(=O)N[C@@H](CC(N)=O)C(=O)N[C@H](C(=O)N[C@@H](Cc1ccc(O)cc1)C(N)=O)[C@@H](C)O)C(C)C)[C@@H](C)O)C(C)C` [Example 35, N-alpha-(19-carboxynonadecanoyl)-Glu-Glu-Arg-[Glu1,Gln3,Arg18,Gln21,Leu23,Val26]-pramlintide (1-37)] ({C20 diacid}-EERECQTATCATQRLANFLVRSSQNLGPVLPPTNVGSNTY-NH2; disulfide 5-10; C-terminus assumed), the EC50 amounted to 0.09 nM.

The experiment is the same for the next values; noted with them: BHK570 cells with human calcitonin receptor (CTa), RAMP-3 and CRE-luciferase reporter; 4 hours incubation; read-out: Potency luciferase assay.
In the case of `CC[C@H](C)[C@H](NC(=O)[C@H](CCCCNC(=O)CC[C@H](NC(=O)CCCCCCCCCCCCCCCCC(=O)O)C(=O)O)NC(=O)CNC(=O)[C@H](Cc1ccccc1)NC(=O)[C@H](CC(N)=O)NC(=O)[C@H](CC(N)=O)NC(=O)[C@H](CO)NC(=O)[C@H](CO)NC(=O)[C@H](Cc1c[nH]cn1)NC(=O)[C@@H](NC(=O)[C@H](CC(C)C)NC(=O)[C@H](Cc1ccccc1)NC(=O)[C@H](CC(N)=O)NC(=O)[C@H](C)NC(=O)[C@H](CC(C)C)NC(=O)[C@H](CCCNC(=N)N)NC(=O)[C@H](CCC(N)=O)NC(=O)[C@@H](NC(=O)[C@H](C)NC(=O)[C@@H]1CSSC[C@H](NC(=O)[C@@H](N)CCCCN)C(=O)N[C@@H](CC(N)=O)C(=O)N[C@@H]([C@@H](C)O)C(=O)N[C@@H](C)C(=O)N[C@@H]([C@@H](C)O)C(=O)N1)[C@@H](C)O)C(C)C)C(=O)N[C@@H](CC(C)C)C(=O)N1CCC[C@H]1C(=O)N1CCC[C@H]1C(=O)N[C@H](C(=O)N[C@@H](CC(N)=O)C(=O)N[C@H](C(=O)NCC(=O)N[C@@H](CO)C(=O)N[C@@H](CC(N)=O)C(=O)N[C@H](C(=O)N[C@@H](Cc1ccc(O)cc1)C(N)=O)[C@@H](C)O)C(C)C)[C@@H](C)O` [Example 27, N-epsilon25-[(S)-4-carboxy-4-(17-carboxyheptadecanoylamino)butyryl]-[Lys25]-pramlintide (1-37)] (H-KCNTATCATQRLANFLVHSSNNFGK([γGlu-C18 diacid])ILPPTNVGSNTY-NH2; disulfide 2-7; N-terminus assumed), the EC50 came out at 0.09 nM.
The same measure, in the same setting: then `CC(C)C[C@H](NC(=O)[C@H](CC(N)=O)NC(=O)[C@H](CCC(N)=O)NC(=O)[C@H](CO)NC(=O)[C@H](CO)NC(=O)[C@H](CCCNC(=N)N)NC(=O)[C@@H](NC(=O)[C@H](CC(C)C)NC(=O)[C@H](Cc1ccccc1)NC(=O)[C@H](CC(N)=O)NC(=O)[C@H](C)NC(=O)[C@H](CC(C)C)NC(=O)[C@H](CCCNC(=N)N)NC(=O)[C@H](CCC(N)=O)NC(=O)[C@@H](NC(=O)[C@H](C)NC(=O)[C@@H]1CSSC[C@H](NC(=O)[C@@H](N)CCCCN)C(=O)N[C@@H](CCCCNC(=O)CC[C@H](NC(=O)CCCCCCCCCCCCCCCCC(=O)O)C(=O)O)C(=O)N[C@@H]([C@@H](C)O)C(=O)N[C@@H](C)C(=O)N[C@@H]([C@@H](C)O)C(=O)N1)[C@@H](C)O)C(C)C)C(=O)NCC(=O)N1CCC[C@H]1C(=O)N[C@H](C(=O)N[C@@H](CC(C)C)C(=O)N1CCC[C@H]1C(=O)N1CCC[C@H]1C(=O)N[C@H](C(=O)N[C@@H](CC(N)=O)C(=O)N[C@H](C(=O)NCC(=O)N[C@@H](CO)C(=O)N[C@@H](CC(N)=O)C(=O)N[C@H](C(=O)N[C@@H](Cc1ccc(O)cc1)C(N)=O)[C@@H](C)O)C(C)C)[C@@H](C)O)C(C)C` [Example 28, N-epsilon3-[(S)-4-Carboxy-4-(17-carboxyheptadecanoylamino)butyryl]-[Lys3,Arg18,Gln21,Leu23,Val26]-pramlintide (1-37)] (H-KCK([γGlu-C18 diacid])TATCATQRLANFLVRSSQNLGPVLPPTNVGSNTY-NH2; disulfide 2-7), with 0.04 nM.
Same read-out and setting: then `CC[C@H](C)[C@H](NC(=O)[C@@H]1CCCN1C(=O)CNC(=O)[C@H](Cc1ccccc1)NC(=O)[C@H](CC(N)=O)NC(=O)[C@H](CC(N)=O)NC(=O)[C@H](CO)NC(=O)[C@H](CO)NC(=O)[C@H](Cc1c[nH]cn1)NC(=O)[C@@H](NC(=O)[C@H](CC(C)C)NC(=O)[C@H](Cc1ccccc1)NC(=O)[C@H](CC(N)=O)NC(=O)[C@H](C)NC(=O)[C@H](CC(C)C)NC(=O)[C@H](CCCNC(=N)N)NC(=O)[C@H](CCC(N)=O)NC(=O)[C@@H](NC(=O)[C@H](C)NC(=O)[C@@H]1CSSC[C@H](NC(=O)[C@@H](N)CCCCN)C(=O)N[C@@H](CCCCNC(=O)COCCOCCNC(=O)CCCS(=O)(=O)NC(=O)CCCCCCCCCCCCCCCc2nnn[nH]2)C(=O)N[C@@H]([C@@H](C)O)C(=O)N[C@@H](C)C(=O)N[C@@H]([C@@H](C)O)C(=O)N1)[C@@H](C)O)C(C)C)C(=O)N[C@@H](CC(C)C)C(=O)N1CCC[C@H]1C(=O)N1CCC[C@H]1C(=O)N[C@H](C(=O)N[C@@H](CC(N)=O)C(=O)N[C@H](C(=O)NCC(=O)N[C@@H](CO)C(=O)N[C@@H](CC(N)=O)C(=O)N[C@H](C(=O)N[C@@H](Cc1ccc(O)cc1)C(N)=O)[C@@H](C)O)C(C)C)[C@@H](C)O` [Example 30, N-epsilon3-[2-(2-{2-[4-(16-1H-tetrazol-5-yl-hexadecanoylsulfamoyl)butyrylamino]ethoxy}ethoxy)acetyl]-[Lys3]pramlintide (1-37)] (H-KCK([AEEA-X1])TATCATQRLANFLVHSSNNFGPILPPTNVGSNTY-NH2; disulfide 2-7; N-terminus and C-terminus assumed), with 0.1 nM; and `CC[C@H](C)[C@H](NC(=O)[C@@H]1CCCN1C(=O)CNC(=O)[C@H](Cc1ccccc1)NC(=O)[C@H](CC(N)=O)NC(=O)[C@H](CC(N)=O)NC(=O)[C@H](CO)NC(=O)[C@H](CO)NC(=O)[C@H](Cc1c[nH]cn1)NC(=O)[C@@H](NC(=O)[C@H](CC(C)C)NC(=O)[C@H](Cc1ccccc1)NC(=O)[C@H](CC(N)=O)NC(=O)[C@H](C)NC(=O)[C@H](CC(C)C)NC(=O)[C@H](CCCNC(=N)N)NC(=O)[C@H](CCC(N)=O)NC(=O)[C@@H](NC(=O)[C@H](C)NC(=O)[C@@H]1CSSC[C@H](NC(=O)[C@H](CCC(=O)O)NC(=O)[C@H](CCCNC(=N)N)NC(=O)[C@H](CCC(=O)O)NC(=O)[C@H](CCC(=O)O)NC(=O)CCCS(=O)(=O)NC(=O)CCCCCCCCCCCCCCCc2nnn[nH]2)C(=O)N[C@@H](CC(N)=O)C(=O)N[C@@H]([C@@H](C)O)C(=O)N[C@@H](C)C(=O)N[C@@H]([C@@H](C)O)C(=O)N1)[C@@H](C)O)C(C)C)C(=O)N[C@@H](CC(C)C)C(=O)N1CCC[C@H]1C(=O)N1CCC[C@H]1C(=O)N[C@H](C(=O)N[C@@H](CC(N)=O)C(=O)N[C@H](C(=O)NCC(=O)N[C@@H](CO)C(=O)N[C@@H](CC(N)=O)C(=O)N[C@H](C(=O)N[C@@H](Cc1ccc(O)cc1)C(N)=O)[C@@H](C)O)C(C)C)[C@@H](C)O` [Example 31, N-alpha-[4-(16-1H-tetrazol-5-yl-hexadecanoylsulfamoyl)-butyryl]-Glu-Glu-Arg-[Glu1]pramlintide (1-37)] (X1-EERECNTATCATQRLANFLVHSSNNFGPILPPTNVGSNTY-NH2; disulfide 5-10), with 0.09 nM; and `CC(C)C[C@H](NC(=O)[C@H](CC(N)=O)NC(=O)[C@H](CCC(N)=O)NC(=O)[C@H](CO)NC(=O)[C@H](CO)NC(=O)[C@H](CCCNC(=N)N)NC(=O)[C@@H](NC(=O)[C@H](CC(C)C)NC(=O)[C@H](Cc1ccccc1)NC(=O)[C@H](CC(N)=O)NC(=O)[C@H](C)NC(=O)[C@H](CC(C)C)NC(=O)[C@H](CCCNC(=N)N)NC(=O)[C@H](CCC(N)=O)NC(=O)[C@@H](NC(=O)[C@H](C)NC(=O)[C@@H]1CSSC[C@H](NC(=O)[C@H](CCC(=O)O)NC(=O)[C@H](CCC(=O)O)NC(=O)[C@H](CCC(=O)O)NC(=O)[C@H](CCC(=O)O)NC(=O)CCCCCCCCCCCCCCCCCCC(=O)O)C(=O)N[C@@H](CCC(N)=O)C(=O)N[C@@H]([C@@H](C)O)C(=O)N[C@@H](C)C(=O)N[C@@H]([C@@H](C)O)C(=O)N1)[C@@H](C)O)C(C)C)C(=O)NCC(=O)N1CCC[C@H]1C(=O)N[C@H](C(=O)N[C@@H](CC(C)C)C(=O)N1CCC[C@H]1C(=O)N1CCC[C@H]1C(=O)N[C@H](C(=O)N[C@@H](CC(N)=O)C(=O)N[C@H](C(=O)NCC(=O)N[C@@H](CO)C(=O)N[C@@H](CC(N)=O)C(=O)N[C@H](C(=O)N[C@@H](Cc1ccc(O)cc1)C(N)=O)[C@@H](C)O)C(C)C)[C@@H](C)O)C(C)C` [Example 37, N-alpha-(19-carboxynonadecanoyl)-Glu-Glu-Glu-[Glu1,Gln3,Arg18,Gln21,Leu23,Val26]-pramlintide (1-37)] ({C20 diacid}-EEEECQTATCATQRLANFLVRSSQNLGPVLPPTNVGSNTY-NH2; disulfide 5-10), with 2 nM.

(Values after patent US20100222269A1, “IMPROVED DERIVATIVES OF AMYLIN” (priority 2007, published 2010).)
